According to ChEMBL document CHEMBL1145481, “Molecular epidemiology of telithromycin-resistant pneumococci in Finland” (2007):

Columns and labels:
[1] = system: Streptococcus pneumoniae; assay: Antimicrobial activity against telithromycin-resistant Streptococcus pneumoniae 326 isolate with erm(B) resistance gene from patient blood by disk diffusion test; type: functional
[2] = system: Streptococcus pneumoniae; assay: Antimicrobial activity against telithromycin-resistant Streptococcus pneumoniae 115 isolate with erm(B) resistance gene from patient ear by disk diffusion test; type: functional
[3] = system: Streptococcus pneumoniae; assay: Antimicrobial activity against telithromycin-resistant Streptococcus pneumoniae 1016 isolate with erm(B) resistance gene from patient blood by disk diffusion test; type: functional
[4] = system: Streptococcus pneumoniae; assay: Antimicrobial activity against telithromycin-resistant Streptococcus pneumoniae 376 isolate with erm(B) resistance gene from patient ear by disk diffusion test; type: functional
[5] = system: Streptococcus pneumoniae; assay: Antimicrobial activity against telithromycin-resistant Streptococcus pneumoniae 838 isolate with erm(B) and mef(E) resistance gene from patient ear by disk diffusion test; type: functional
[6] = system: Streptococcus pneumoniae; assay: Antimicrobial activity against telithromycin-resistant Streptococcus pneumoniae 1022 isolate with erm(B) resistance gene from patient ear by disk diffusion test; type: functional
[7] = system: Streptococcus pneumoniae; assay: Antimicrobial activity against telithromycin-resistant Streptococcus pneumoniae 1051 isolate with erm(B) resistance gene from patient ear by disk diffusion test; type: functional
[8] = system: Streptococcus pneumoniae; assay: Antimicrobial activity against telithromycin-resistant Streptococcus pneumoniae 1017 isolate with erm(B) resistance gene from patient ear by disk diffusion test; type: functional
[9] = system: Streptococcus pneumoniae; assay: Antimicrobial activity against telithromycin-resistant Streptococcus pneumoniae 759 isolate with erm(B) resistance gene from patient ear by disk diffusion test; type: functional
[10] = system: Streptococcus pneumoniae; assay: Antimicrobial activity against telithromycin-resistant Streptococcus pneumoniae 918 isolate with erm(B) resistance gene from patient eye by disk diffusion test; type: functional
[11] = system: Streptococcus pneumoniae; assay: Antimicrobial activity against telithromycin-resistant Streptococcus pneumoniae 981 isolate with erm(B) resistance gene from patient blood by disk diffusion test; type: functional
[12] = system: Streptococcus pneumoniae; assay: Antimicrobial activity against telithromycin-resistant Streptococcus pneumoniae 552 isolate with erm(B) resistance gene from patient sinuitis by disk diffusion test; type: functional
[13] = system: Streptococcus pneumoniae; assay: Antimicrobial activity against telithromycin-resistant Streptococcus pneumoniae 897 isolate with erm(B) resistance gene from patient bronchoalveolar lavage by disk diffusion test; type: functional, Lung
[14] = system: Streptococcus pneumoniae; assay: Antimicrobial activity against telithromycin-resistant Streptococcus pneumoniae 833 isolate with erm(B) resistance gene from patient sinuitis by disk diffusion test; type: functional
[15] = system: Streptococcus pneumoniae; assay: Antimicrobial activity against telithromycin-resistant Streptococcus pneumoniae 426 isolate with erm(B) resistance gene from patient sinuitis by disk diffusion test; type: functional
[16] = system: Streptococcus pneumoniae; assay: Antimicrobial activity against telithromycin-resistant Streptococcus pneumoniae 1041 isolate with erm(B) resistance gene from patient blood by disk diffusion test; type: functional
[17] = system: Streptococcus pneumoniae; assay: Antimicrobial activity against telithromycin-resistant Streptococcus pneumoniae 683 isolate with erm(B) resistance gene from patient sputum by disk diffusion test; type: functional
[18] = system: Streptococcus pneumoniae; assay: Antimicrobial activity against telithromycin-resistant Streptococcus pneumoniae 443 isolate with erm(B) resistance gene from patient ear by disk diffusion test; type: functional
[19] = system: Streptococcus pneumoniae; assay: Antimicrobial activity against telithromycin-resistant Streptococcus pneumoniae 237 isolate with erm(B) resistance gene from patient ear by disk diffusion test; type: functional
[20] = system: Streptococcus pneumoniae; assay: Antimicrobial activity against telithromycin-resistant Streptococcus pneumoniae 837 isolate with mutation in erm(B), mef(E), L4 Ser20Asn mutant gene from patient sputum by disk diffusion test; type: functional
[21] = system: Streptococcus pneumoniae; assay: Antimicrobial activity against telithromycin-resistant Streptococcus pneumoniae 460 isolate with erm(B) resistance gene from patient ear by disk diffusion test; type: functional
[22] = system: Streptococcus pneumoniae; assay: Antimicrobial activity against telithromycin-resistant Streptococcus pneumoniae 547 isolate with erm(B) resistance gene from patient sinuitis by disk diffusion test; type: functional
[23] = system: Streptococcus pneumoniae; assay: Antimicrobial activity against telithromycin-resistant Streptococcus pneumoniae 415 isolate with erm(B) resistance gene from patient blood by disk diffusion test; type: functional
[24] = system: Streptococcus pneumoniae; assay: Antimicrobial activity against telithromycin-resistant Streptococcus pneumoniae 811 isolate with erm(B) resistance gene from patient blood by disk diffusion test; type: functional
[25] = system: Streptococcus pneumoniae; assay: Antimicrobial activity against telithromycin-resistant Streptococcus pneumoniae 859 isolate with erm(B) resistance gene from patient bronchoalveolar lavage by disk diffusion test; type: functional, Lung
[26] = system: Streptococcus pneumoniae; assay: Antimicrobial activity against telithromycin-resistant Streptococcus pneumoniae 427 isolate with erm(B) resistance gene from patient sinuitis by disk diffusion test; type: functional

SMILES | Activity [1] [µg/mL] | Activity [2] [µg/mL] | Activity [3] [µg/mL] | Activity [4] [µg/mL] | Activity [5] [µg/mL] | Activity [6] [µg/mL] | Activity [7] [µg/mL] | Activity [8] [µg/mL] | Activity [9] [µg/mL] | Activity [10] [µg/mL] | Activity [11] [µg/mL] | Activity [12] [µg/mL] | Activity [13] [µg/mL] | Activity [14] [µg/mL] | Activity [15] [µg/mL] | Activity [16] [µg/mL] | Activity [17] [µg/mL] | Activity [18] [µg/mL] | Activity [19] [µg/mL] | Activity [20] [µg/mL] | also measured
CN(C)[C@@H]1C(O)=C(C(N)=O)C(=O)[C@@]2(O)C(O)=C3C(=O)c4c(O)cccc4[C@@](C)(O)[C@H]3C[C@@H]12 [TETRACYCLINE] | 32 | 64 | 32 | 0.5 | 32 | 32 | 32 | 32 | 32 | 32 | 32 | 32 | 64 | 32 | 32 | 32 | 32 | 32 | 32 | 64 | Activity [21]: 32 µg/mL; Activity [22]: 32 µg/mL; Activity [23]: 32 µg/mL; Activity [24]: 16 µg/mL; Activity [25]: 32 µg/mL; Activity [26]: 32 µg/mL
CC[C@H]1OC(=O)[C@H](C)[C@@H](O[C@H]2C[C@@](C)(OC)[C@@H](O)[C@H](C)O2)[C@H](C)[C@@H](O[C@@H]2O[C@H](C)C[C@H](N(C)C)[C@H]2O)[C@](C)(O)C[C@@H](C)C(=O)[C@H](C)[C@@H](O)[C@]1(C)O [ERYTHROMYCIN] | 129 | 129 | 129 | 129 | 129 | 129 | 129 | 129 | 129 | 129 | 129 | 129 | 129 | 129 | 129 | 129 | 129 | 129 | 129 | 129 | Activity [21]: 129 µg/mL; Activity [22]: 129 µg/mL; Activity [23]: 129 µg/mL; Activity [24]: 129 µg/mL; Activity [25]: 129 µg/mL; Activity [26]: 129 µg/mL
